Reference: PMC2946430 (Biosensors & bioelectronics, 2010)
pIC50: −log10 of the molar value. Blank lines part the entries; values can stand above or below the compound they belong to.

Key:
[1] = tested on: phosphorylation of MAPK and Akt in H1650-ER1, H1650-ER2 and H1650-ER4 cells; test: Western blot of MAPK and Akt phosphorylation, resistant clones; format: cell-based, human; settings: for suppression of p-AKT and p-MAPK levels: resistant H1650-ER1 cells compared to parent H1650 cells
[2] = target: EGFR kinase activity in H1650-ER1, H1650-ER2, H1650-ER4 cell lysates (Homo sapiens, UniProt P00533, DEL746-750)
[3] = tested on: EGFR kinase activity in H23 cell lysate (wild type EGFR); test: Hydrogel-based peptide array kinase assay, H23 cell lysate; format: biochemical, human; settings: 0-50 μM, compared with H1650
[4] = tested on: H1650 cells; test: Clonogenic assay, parental H1650; format: cell-based, human; settings: parental H1650, continuous exposure 10 μM and 50 μM, 15 days
[5] = tested on: erlotinib-resistant H1650 clones; test: cells; settings: Homo sapiens, NCI-H1650, 48 h, read-out: IC50, cell proliferation/viability
[6] = tested on: phosphorylation of MAPK and Akt in H1650 cells; test: Western blot of MAPK and Akt phosphorylation, parental H1650; format: cell-based, human
[7] = tested on: H1650 cells; test: cells; settings: Homo sapiens, NCI-H1650, 48 h, read-out: IC50, cell proliferation/viability

SMILES: CC#CC(=O)Nc1ccc2ncnc(Nc3cccc(Br)c3)c2c1 [CL-387,785]
suppression of p-AKT and p-MAPK levels [1]: persistent activity

pIC50 [2]: < 5.00
SMILES: C[C@@H](Nc1ncnc2[nH]c(-c3ccc(O)cc3)cc12)c1ccccc1 [PKI-166]

SMILES: C#Cc1cccc(Nc2ncnc3cc(OCCOC)c(OCCOC)cc23)c1 [erlotinib]
effect on substrate phosphorylation by H23 lysate [3]: much less effective
colony formation [4]: very few colonies
pIC50 [5]: < 4.70
MAPK phosphorylation ([6]; parental H1650, 0, 1 and 10 μM for 5 hr, Western blot): attenuation in MAPK phosphorylation
Akt phosphorylation ([6]; parental H1650, Western blot): did not affect
MAPK phosphorylation ([1]; H1650-ER1, H1650-ER2, H1650-ER4, 0, 1 and 10 μM for 5 hr): maintained
suppression of p-AKT and p-MAPK levels [1]: reduced efficacy
Akt phosphorylation ([1]; resistant clones): did not affect
pIC50 [7]: ~5.62
